Patent US6613317B1, “Volatile attractants for diabrotica species” (priority 1988, dated 2003)
Marks after values point to notes of the source that are not given here.

Tests used:
[1] = system: southern corn rootworm (SCR) adults; test: Sticky trap attraction in corn, estragole analogues (Example 3); type: in vivo, Diabrotica undecimpunctata howardi; details: 100 mg per trap, n = 4
Outline: (§1)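 Cotton wicks dosed with 100 mg or 100 μL attractant per trap on TangleTrap-coated cartons, four replicates 10 m apart on 1 m posts at field edges of hybrid or sweet corn. Mean beetles caught after ~24 h; log-transformed ANOVA with Duncan's test, P=0.05.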

[2] = system: D. u. howardi; test: Sticky trap attraction in prairie habitat, Trelease Woods (Example 2); type: in vivo, Diabrotica undecimpunctata howardi; details: 100 mg per trap, n = 4
Outline: (§2)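 Lure-dosed cotton wicks (solids in acetone; untreated controls) on TangleTrap-coated cartons atop 1 m posts, four replicates 10 m apart in relict prairie, mid-August over two years. Read-out: mean beetles caught after 24-h; log-transformed ANOVA with Duncan's multiple range test.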

[3] = system: D. v. virgifera; test: Sticky trap attraction along hybrid corn, Pomology South Farms (Example 2); type: in vivo, Diabrotica virgifera virgifera; details: 100 mg per trap, n = 4
Outline: (§3)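 Lures (>98% purity) dosed at 100 mg per trap on cotton wicks atop TangleTrap-coated 1.0 liter cartons, solids dissolved in acetone; untreated wicks as controls. Four replicates placed 10 m apart on 1 m posts along a 0.8 ha hybrid corn field; mean beetles caught after 24-h, log-transformed ANOVA with Duncan's test.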

[4] = system: D. barberi; test: Sticky trap attraction in prairie habitat, Trelease Woods (Example 2); type: in vivo, Diabrotica barberi; details: for Mean number of D. barberi per day (±standard deviation) / Mean number of D. barberi per sticky trap per day (±standard deviation): 100 mg per trap, n = 4
Outline: as §2

[5] = system: D. barberi; test: Sticky trap attraction along hybrid corn, Pomology South Farms (Example 2); type: in vivo, Diabrotica barberi; details: 100 mg per trap, n = 4
Outline: as §3

[6] = system: D. v. virgifera; test: Sticky trap attraction in prairie habitat, Trelease Woods (Example 2); type: in vivo, Diabrotica virgifera virgifera; details: 100 mg per trap, n = 4
Outline: as §2

[7] = system: western corn rootworm (WCR) adults; test: Sticky trap attraction in corn, estragole analogues (Example 3); type: in vivo, Diabrotica virgifera virgifera; details: 100 mg per trap, n = 4
Outline: as §1

[8] = system: northern corn rootworm (NCR) adults; test: as above; type: in vivo, Diabrotica barberi; details: 100 mg per trap, n = 4
Outline: as §1

[9] = system: D. cristata; test: Sticky trap attraction in prairie habitat, Trelease Woods (Example 2); type: in vivo, Diabrotica cristata; details: 100 mg per trap, n = 4
Outline: as §2

[10] = system: D. u. howardi; test: Sticky trap attraction along hybrid corn, Pomology South Farms (Example 2); type: in vivo, Diabrotica undecimpunctata howardi; details: 100 mg per trap, n = 4
Outline: as §3

Row | SMILES | Mean number of SCR (±standard deviation) per sticky trap after 24 hours ([1]; August 7 (Table 11)) | Mean number of SCR (±standard deviation) per sticky trap after 24 hours ([1]; August 18 (Table 11)) | Mean number of D. u. howardi per day (±standard deviation) ([2]; August 11, 1987) | Mean number of D. u. howardi per day (±standard deviation) ([2]; August 14, 1987) | Mean number of D. v. virgifera per stick trap per day (±standard deviation) in corn ([3]; August 7) | Mean number of D. v. virgifera per stick trap per day (±standard deviation) in corn ([3]; August 18) | Mean number of D. barberi per day (±standard deviation) ([4]; August 11, 1987) | Mean number of D. barberi per day (±standard deviation) ([4]; August 14, 1987) | activity for D. barberi relative to estragole ([4]; prairie, Table 5) | Mean number of D. barberi per stick trap per day (±standard deviation) in corn ([5]; August 7) | Mean number of D. barberi per stick trap per day (±standard deviation) in corn ([5]; August 18) | Mean number of D. v. virgifera per day (±standard deviation) ([6]; August 11, 1987) | Mean number of D. v. virgifera per day (±standard deviation) ([6]; August 14, 1987) | Mean number of WCR (±standard deviation) per sticky trap after 24 hours ([7]; August 7 (Table 11)) | Mean number of WCR (±standard deviation) per sticky trap after 24 hours ([7]; August 18 (Table 11)) | Mean number of NCR (±standard deviation) per sticky trap after 24 hours ([8]; August 7 (Table 11)) | Mean number of NCR (±standard deviation) per sticky trap after 24 hours ([8]; August 18 (Table 11)) | Mean number of D. cristata per day (±standard deviation) ([9]; August 11, 1987) | Mean number of D. cristata per day (±standard deviation) ([9]; August 14, 1987) | Mean number of D. u. howardi per stick trap per day (±standard deviation) in corn ([10]; August 7) | also measured
1 | C=CCc1ccc(O)c(OC)c1 [XXIV, eugenol] | 6.2 ± 1.0^a per sticky trap | 0.0^a per sticky trap | 0.0^a per day | 0.0^a per day | 10.0 ± 2.9^a per stick trap per day | 2.8 ± 2.9^a per stick trap per day | 9.5 ± 8.3^bc per day | 8.3 ± 3.3^c per day | 2 times | 5.8 ± 2.2^b per stick trap per day | 16.3 ± 5.7^b per stick trap per day | 0.3 ± 0.5^a per day | 0.0^a per day | 10.0 ± 2.9^a per sticky trap | 2.7 ± 2.9^a per sticky trap | 5.7 ± 2.2^b per sticky trap | 16.5 ± 5.7^b per sticky trap | 39.5 ± 9.4^c per day | 20.0 ± 8.4^cd per day | 6.3 ± 1.0^a per stick trap per day | Mean number of D. u. howardi per sticky trap per day (±standard deviation) ([2]; August 18, first year): 0.3 ± 0.5^a per sticky trap per day; Mean number of D. u. howardi per sticky trap per day (±standard deviation) ([2]; August 20, first year): 0.8 ± 0.5^a per sticky trap per day; Mean number of D. u. howardi per sticky trap per day (±standard deviation) ([2]; August 27, first year): 0.3 ± 0.5^a per sticky trap per day; Mean number of D. barberi per sticky trap per day (±standard deviation) ([4]; August 18, first year): 21.8 ± 7.3^b per sticky trap per day; Mean number of D. barberi per sticky trap per day (±standard deviation) ([4]; August 20, first year): 22.5 ± 13.2^c per sticky trap per day; Mean number of D. barberi per sticky trap per day (±standard deviation) ([4]; August 27, first year): 10.5 ± 4.8^b per sticky trap per day; Mean number of D. v. virgifera per sticky trap per day (±standard deviation) ([6]; August 18, first year): 0.3 ± 0.5^a per sticky trap per day; Mean number of D. v. virgifera per sticky trap per day (±standard deviation) ([6]; August 20, first year): 0 per sticky trap per day; Mean number of D. v. virgifera per sticky trap per day (±standard deviation) ([6]; August 27, first year): 0 per sticky trap per day; Mean number of D. cristata per sticky trap per day (±standard deviation) ([9]; August 18, first year): 11.5 ± 8.6^b per sticky trap per day; Mean number of D. cristata per sticky trap per day (±standard deviation) ([9]; August 20, first year): 15.5 ± 7.9^c per sticky trap per day; Mean number of D. cristata per sticky trap per day (±standard deviation) ([9]; August 27, first year): 3.5 ± 3.3^b per sticky trap per day; Mean number of D. u. howardi per stick trap per day (±standard deviation) in corn ([10]; August 18): 0.0^a per stick trap per day
2 | OCC=Cc1ccccc1 [XVIII, cinnamyl alcohol] | 24.5 ± 13.6^b per sticky trap | 1.8 ± 1.3^b per sticky trap | 0.3 ± 0.5^a per day | 2.8 ± 1.7^b per day | 13.8 ± 10.2^a per stick trap per day | 3.3 ± 2.7^a per stick trap per day | 16.5 ± 5.1^c per day | 13.0 ± 12.8^bc per day | 5 times | 8.5 ± 6.1^b per stick trap per day | 23.3 ± 5.9^c per stick trap per day | 0.0 per day | 0.0^a per day | 13.8 ± 10.2^a per sticky trap | 3.3 ± 1.7^a per sticky trap | 8.5 ± 6.1^b per sticky trap | 23.2 ± 5.9^c per sticky trap | 28.3 ± 5.3^c per day | 20.5 ± 1.3^d per day | 24.5 ± 13.6^b per stick trap per day | Mean number of SCR per sticky trap after 24 hours ([1]; August 5 (Table 10)): 14.5 ± 9.6^ab per sticky trap; activity for D. barberi relative to the TIC mixture ([4]; prairie, Table 5): ca. 3.5 times; Mean number of WCR per sticky trap after 24 hours ([7]; August 5 (Table 10)): 16.5 ± 1.9^ab per sticky trap; Mean number of NCR per sticky trap after 24 hours ([8]; August 5 (Table 10)): 8.7 ± 4.6^c per sticky trap; Mean number of D. u. howardi per stick trap per day (±standard deviation) in corn ([10]; August 18): 1.8 ± 1.3^b per stick trap per day
